For the assay, the target named is PAD4 (Homo sapiens, UniProt Q9UM07). The assay is described as follows: PAD4 Inhibition Assay (citrulline formation from BAEE substrate). It is filed as biochemical. The following applies: PAD4 75 nM, 60 minute preincubation at 37° C., 90 minutes. The protocol:
PAD4 was diluted to 75 nM in Assay Buffer (50 mM Tris-HCl, 2 mM CaCl2), 2 mM DTT, 1 mM PMSF in H2O) and added to wells with various concentrations of compound or DMSO vehicle in Eppendorf tubes (final volume was 100 μL). Following a 60 minute preincubation at 37° C., the reaction was initiated by the addition of 10 μL substrate (22 mM BAEE in H2O) at 37° C. The reaction was stopped after 90 minutes by the addition of 25 μL HClO4 (5 M), 125 μL Reagent A (10 g/L diacetyl monoxime and 15 g/L NaCl in H2O) and 250 μL Reagent B (10 mg/mL antipyrine and 1.0 mg/mL FeCl3 diluted in detection buffer containing 25% H2SO4, 25% H3PO4 and 50% H2O) in sequence. This assay was quenched in an ice-bath for 5 minutes after boiling for 30 minutes. The citrulline formation was measured in fluorescence (κ=465 nm) on microplate reader and the IC50 was calculated by GraphPad Prism.

Our source for the IC50 values is patent publication US20230381146A1, “SUBSTITUTED HETEROARYL COMPOUNDS AND USE THEREOF” (HELIOS HUAMING BIOPHARMA CO., LTD., priority 2020, published 2023).

Sequence of PAD4 (Q9UM07 whole entry): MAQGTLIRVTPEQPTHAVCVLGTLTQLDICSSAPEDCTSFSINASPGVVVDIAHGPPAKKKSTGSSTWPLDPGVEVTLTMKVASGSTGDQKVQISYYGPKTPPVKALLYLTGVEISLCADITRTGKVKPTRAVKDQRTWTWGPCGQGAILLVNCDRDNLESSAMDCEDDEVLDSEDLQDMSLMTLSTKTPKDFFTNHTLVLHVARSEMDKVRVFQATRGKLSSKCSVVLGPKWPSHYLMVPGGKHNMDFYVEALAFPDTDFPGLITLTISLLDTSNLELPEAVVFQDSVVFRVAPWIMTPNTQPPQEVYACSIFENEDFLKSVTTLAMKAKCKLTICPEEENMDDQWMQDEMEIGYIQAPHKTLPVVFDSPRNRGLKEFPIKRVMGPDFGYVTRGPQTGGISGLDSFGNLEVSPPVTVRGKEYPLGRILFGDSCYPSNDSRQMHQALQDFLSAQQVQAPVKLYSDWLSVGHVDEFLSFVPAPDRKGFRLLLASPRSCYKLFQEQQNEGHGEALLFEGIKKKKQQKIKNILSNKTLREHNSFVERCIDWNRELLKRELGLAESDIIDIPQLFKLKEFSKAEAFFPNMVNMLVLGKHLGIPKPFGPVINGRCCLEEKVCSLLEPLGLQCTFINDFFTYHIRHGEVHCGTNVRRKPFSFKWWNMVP

Take `COc1cccc(Cl)c1C(=O)N[C@@H](CCCNC(=N)CF)c1ncc(-c2ccccc2Cl)o1` [EX-26, (S)-2-Chloro-N-(1-(5-(2-chlorophenyl)oxazol-2-yl)-4-(2-fluoroacetimidamido)butyl)-6-methoxybenzamide]: the IC50 lay within 200 to 500 nM.

Compound `N=C(CCl)NCCC[C@H](NC(=O)c1cccc(-c2cccc(Cl)c2)c1)c1ncc(-c2ccccc2)o1` [EX-2, (S)-3′-chloro-N-(4-(2-chloroacetimidamido)-1-(5-phenyloxazol-2-yl)butyl)-[1,1′-biphenyl]-3-carboxamide] displayed a half-maximal inhibitory concentration (IC50) greater than 500 nM.

Turning to `COc1cccc(F)c1C(=O)N[C@@H](CCCNC(=N)CF)c1ncc(-c2cccc(C)c2)o1` [EX-31, (S)-2-Fluoro-N-(4-(2-fluoroacetimidamido)-1-(5-(m-tolyl)oxazol-2-yl)butyl)-6-methoxybenzamide], the IC50 is 200 to 500 nM.

The compound `COc1ccc(N2CCOCC2)cc1C(=O)N[C@@H](CCCNC(=N)CF)c1ncc(-c2ccccc2)o1` [EX-17, (S)-N-(4-(2-Fluoroacetimidamido)-1-(5-phenyloxazol-2-yl)butyl)-2-methoxy-5-morpholinobenzamide] registered an IC50 greater than 500 nM.

The compound `COc1ccc(N2CCN(C)CC2)cc1C(=O)N[C@@H](CCCNC(=N)CF)c1ncc(-c2ccccc2)o1` [EX-18, (S)-N-(4-(2-Fluoroacetimidamido)-1-(5-phenyloxazol-2-yl)butyl)-2-methoxy-5-(4-methylpiperazin-1-yl)benzamide] returned an IC50 of 200 to 500 nM.

As for `COc1cc2c(OC)cccc2cc1C(=O)N[C@@H](CCCNC(=N)CF)c1ncc(C2CCCC2)o1` [EX-11, (S)-N-(1-(5-Cyclopentyloxazol-2-yl)-4-(2-fluoroacetimidamido)butyl)-3,5-dimethoxy-2-naphthamide], the IC50 lay within 200 to 500 nM.

In turn, `COc1cc2ccccc2cc1C(=O)N[C@@H](CCCNC(=N)CF)c1ncc(-c2ccccc2)o1` [EX-36, (S)—N-(4-(2-fluoroacetimidamido)-1-(5-phenyloxazol-2-yl)butyl)-3-methoxy-2-naphthamide] yielded an IC50 of less than 200 nM.

As to `CN(C)c1cccc(Cl)c1C(=O)N[C@@H](CCCNC(=N)CF)c1ncc(-c2ccc(Cl)cc2)o1` [EX-23, (S)-2-Chloro-N-(1-(5-(4-chlorophenyl)oxazol-2-yl)-4-(2-fluoroacetimidamido)butyl)-6-(dimethylamino)benzamide], the IC50 is 200 to 500 nM.

On to `CN(C)c1ccc2cc(C(=O)N[C@@H](CCCNC(=N)CF)c3ncc(-c4ccccc4)o3)ccc2c1` [EX-4, (S)-6-(Dimethylamino)-N-(4-(2-fluoroacetimidamido)-1-(5-phenyloxazol-2-yl)butyl)-2-naphthamide], for which the concentration for half-maximal inhibition (IC50) is 200 to 500 nM.

Regarding `COc1cccc(OC)c1C(=O)N[C@@H](CCCNC(=N)CF)c1ncc(-c2ccccc2Cl)o1` [EX-21, (S)-N-(1-(5-(2-Chlorophenyl)oxazol-2-yl)-4-(2-fluoroacetimidamido)butyl)-2,6-dimethoxybenzamide], the IC50 was less than 200 nM.

For the compound `COc1cccc(OC)c1C(=O)N[C@@H](CCCNC(=N)CF)c1nnc(-c2ccc(Cl)cc2)o1` [EX-39, (S)—N-(1-(5-(4-Chlorophenyl)-1,3,4-oxadiazol-2-yl)-4-(2-fluoroacetimidamido)butyl)-2,6-dimethoxybenzamide], the IC50 was greater than 500 nM.

Compound `CN(C)c1ccc2cc(C(=O)N[C@@H](CCCNC(=N)CF)c3ncc(-c4ccc(Cl)cc4)o3)ccc2c1` [EX-7, (S)—N-(1-(5-(4-chlorophenyl)oxazol-2-yl)-4-(2-fluoroacetimidamido)butyl)-6-(dimethylamino)-2-naphthamide] yielded an IC50 greater than 500 nM.

As to `COc1cc2c(OC)cccc2cc1C(=O)N[C@@H](CCCNC(=N)CF)c1ncc(-c2ccccc2)o1` [EX-10], the IC50 is less than 200 nM.

In the case of `CN(C)c1ccc2cc(C(=O)N[C@@H](CCCNC(=N)CF)c3ncc(-c4cccc(F)c4)o3)ccc2c1` [EX-8, (S)-6-(Dimethylamino)-N-(4-(2-fluoroacetimidamido)-1-(5-(3-fluorophenyl)oxazol-2-yl)butyl)-2-naphthamide], the concentration for half-maximal inhibition (IC50) was greater than 500 nM.

`COc1ccccc1C(=O)N[C@@H](CCCNC(=N)CF)c1ncc(-c2ccccc2)[nH]1` [EX-37, (S)—N-(4-(2-fluoroacetimidamido)-1-(5-phenyl-1H-imidazol-2-yl)butyl)-2-methoxybenzamide]: the IC50 was greater than 500 nM.

`COc1cccc(Cl)c1C(=O)N[C@@H](CCCNC(=N)CF)c1ncc(-c2ccc(N(C)C)cc2)o1` [EX-29, (S)-2-Chloro-N-(1-(5-(4-(dimethylamino)phenyl)oxazol-2-yl)-4-(2-fluoroacetimidamido)butyl)-6-methoxybenzamide]: the IC50 was greater than 500 nM.

As for `COc1cccc(Cl)c1C(=O)N[C@@H](CCCNC(=N)CF)c1ncc(-c2cccc(NC(=O)CCCNC(=O)CCCC[C@@H]3SC[C@@H]4NC(=O)N[C@@H]43)c2)o1` [EX-41, 2-Chloro-N—((S)-4-(2-fluoroacetimidamido)-1-(5-(3-(4-(5-((3aS,4S,6aR)-2-oxohexahydro-1H-thieno[3,4-d]imidazol-4-yl)pentanamido)butanamido)phenyl)oxazol-2-yl)butyl)-6-methoxybenzamide], the IC50 was in the range of 200 to 500 nM.

`COc1cc2c(OC)cccc2cc1C(=O)N[C@@H](CCCNC(=N)CF)c1ncc(-c2cccc(Cl)c2)o1` [EX-13, (S)-N-(1-(5-(3-Chlorophenyl)oxazol-2-yl)-4-(2-fluoroacetimidamido)butyl)-3,5-dimethoxy-2-naphthamide] displayed an IC50 of 200 to 500 nM.

`N=C(CF)NCCC[C@H](NC(=O)c1cccc(N2CCCC2)c1)c1ncc(-c2ccccc2)o1` [EX-16, (S)—N-(4-(2-fluoroacetimidamido)-1-(5-phenyloxazol-2-yl)butyl)-3-(pyrrolidin-1-yl)benzamide] yielded an IC50 of 200 to 500 nM.

For the compound `COc1cccc(OC)c1C(=O)N[C@@H](CCCNC(=N)CF)c1ncc(-c2ccc(Cl)cc2)o1` [EX-19], the IC50 was 200 to 500 nM.

`COc1cccc(Cl)c1C(=O)N[C@@H](CCCNC(=N)CF)c1ncc(-c2cccc(C(F)(F)F)c2)o1` [EX-27, (S)-2-Chloro-N-(4-(2-fluoroacetimidamido)-1-(5-(3-(trifluoromethyl)phenyl)oxazol-2-yl)butyl)-6-methoxybenzamide]: the IC50 was greater than 500 nM.

With `COc1cc2c(OC)cccc2cc1C(=O)N[C@@H](CCCNC(=N)CF)c1ncc(-c2cccc(F)c2)o1` [EX-14, (S)-N-(4-(2-Fluoroacetimidamido)-1-(5-(3-fluorophenyl)oxazol-2-yl)butyl)-3,5-dimethoxy-2-naphthamide], the IC50 was 200 to 500 nM.

As for `COc1cccc(Cl)c1C(=O)N[C@@H](CCCNC(=N)CF)c1ncc(-c2ccc(Cl)cc2)o1` [EX-22, (S)-2-chloro-N-(1-(5-(4-chlorophenyl)oxazol-2-yl)-4-(2-fluoroacetimidamido)butyl)-6-methoxybenzamide], the IC50 is 200 to 500 nM.

`COc1cccc(OC)c1C(=O)N[C@@H](CCCNC(=N)CF)c1nc(-c2ccc(Cl)cc2)no1` [EX-40]: the IC50 was greater than 500 nM.

As for `N=C(CF)NCCC[C@H](NC(=O)c1cccc(-c2cc(Cl)ccn2)c1)c1ncc(-c2ccccc2)o1` [EX-15], the IC50 is greater than 500 nM.

`N=C(CF)NCCC[C@H](NC(=O)c1c(F)cccc1Cl)c1ncc(-c2cccc(Cl)c2)o1` [EX-35, (S)-2-Chloro-N-(1-(5-(3-chlorophenyl)oxazol-2-yl)-4-(2-fluoroacetimidamido)butyl)-6-fluorobenzamide] gave a half-maximal inhibitory concentration (IC50) of 200 to 500 nM.
